According to patent US20200404916A1, “METHOD OF REDUCING CROP DAMAGE” (BAYER AKTIENGESELLSCHAFT, priority 2018, published 2020):

Tests used:
winter wheat, TRZAW [1] = assay: Pre-emergence greenhouse pot test, visual scoring of crop damage on winter wheat; format: in vivo
Method: (§1) For the safener seed treatment, sufficient seeds were weighed into screw top glass bottles approximately twice the volume of the seeds.
(§2) The safener (mefenpyr-diethyl, formulated as suspension concentrate (SC)) was weighed out so that the required rates (g a.i./kg seed) would be obtained, dissolved in water (1 ml water per 10 g of seeds), and added to the seeds to produce a slurry.
(§3) The bottles were capped and then placed in an overhead shaker (set at medium speed for up to 1 hour) so that the seeds were evenly coated with the slurry. The bottles were uncapped and the seeds were sown as described above.
(§4) For the seed treatment process, the blind formulation (the SC formulation without the safener mefenpyr-diethyl) was used as seed treatment as described above.
The compounds were sprayed to the soil surface as an aqueous suspension at an equivalent water application rate of 300 l/ha.
(§5) The combination of herbicide and safener was applied as a tank mix.
(§6) After application, the test plants were kept in the greenhouse under good growth conditions.
(§7) Values in the table below are mean values from at least 3 replicates.

winter wheat, TRZAW [2] = assay: Post-emergence greenhouse pot test, visual scoring of crop damage on winter wheat; format: in vivo
Excerpt: Post-emergence application was done when the plants had reached growth stage BBCH11 (BBCH is the international coding system for the growth stage of crops and weeds).
The safener (mefenpyr-diethyl) was formulated as wettable powder (WP).
The compounds were sprayed onto the green parts of the plants as an aqueous suspension at an equivalent water application rate of 300 l/ha.
as §5, §6, §7, §1, §2, §3, §4
Post-emergence application of the herbicide was done when the plants had reached growth stage BBCH11.
Post-emergence application was done when the plants had reached growth stage BBCH11.

Molecule	% crop damage (winter wheat, TRZAW [1]; safener 200 g/ha in tank mix alone, pre-emergence, no herbicide, 14 days after application) [%]	% crop damage (winter wheat, TRZAW [1]; safener seed treatment 0.5 g/kg alone, no herbicide, pre-emergence test series) [%]	% crop damage (winter wheat, TRZAW [2]; safener 200 g/ha in tank mix alone, post-emergence (BBCH11), no herbicide, 14 days after application) [%]	% crop damage (winter wheat, TRZAW [2]; safener seed treatment 0.5 g/kg alone, no herbicide, post-emergence test series) [%]	% crop damage (winter wheat, TRZAW [1]; herbicide 200 g/ha pre-emergence, no safener, 14 days after application, mean of at least 3 replicates) [%]	% crop damage (winter wheat, TRZAW [2]; herbicide 200 g/ha post-emergence (BBCH11), no safener, 14 days after application, mean of at least 3 replicates) [%]
CCOC(=O)C1=NN(c2ccc(Cl)cc2Cl)C(C)(C(=O)OCC)C1 (stereo not drawn) [Safener in tank mix, ethyl 1-(2,4-dichlorophenyl)-5-(ethoxycarbonyl)-5-methyl-2-pyrazoline-3-carboxylate]	5	5	5	0		
Diflufenican [Herbicide post-em.]					25	20
